Read-outs that look alike come from different tables or passages of the source.
Columns and labels:
Spodoptera frugiperda = Spodoptera frugiperda test (SPODFR spray treatment); assay type: in vivo; settings: 500 g/ha, sprayed maize leaf discs, caterpillars, after 7 days; 100 % = all caterpillars killed
Source text: Spodoptera frugiperda-Test (SPODFR Spritzbehandlung)
(§1) • Lösungsmittel: 78,0 GewichtsteileAceton 1,5 Gewichtsteile Dimethylformamid • Emulgator: 0,5 Gewichtsteile Alkylarylpolyglykolether
(§2) Zur Herstellung einer zweckmäßigen Wirkstoffzubereitung vermischt man 1 Gewichtsteil Wirkstoff mit den angegebenen Mengen Lösungsmittel und Emulgator und verdünnt das Konzentrat mit emulgatorhaltigem Wasser auf die gewünschte Konzentration.
Maisblattscheiben (Zea mays) werden mit einer Wirkstoffzubereitung der gewünschten Konzentration gespritzt und nach dem Abtrocknen mit Raupen des Heerwurms (Spodoptera frugiperda) besetzt.Nach 7 Tagen wird die Wirkung in % bestimmt. Dabei bedeutet 100 %, dass alle Raupen abgetötet wurden; 0 % bedeutet, dass keine Raupe abgetötet wurde.

Phaedon cochleariae = test: Phaedon test (PHAECO spray treatment); assay type: in vivo; settings: 500 g/ha, sprayed Chinese cabbage leaf discs, larvae, after 7 days; 100 % = all beetle larvae killed
Source text: Phaedon-Test (PHAECO Spritzbehandlung)
as §1, §2
Chinakohlblattscheiben (Brassica pekinensis) werden mit einer Wirkstoffzubereitung der gewünschten Konzentration gespritzt und nach dem Abtrocknen mit Larven des Meerrettichblattkäfers (Phaedon cochleariae) besetzt.
Nach 7 Tagen wird die Wirkung in % bestimmt. Dabei bedeutet 100 %, dass alle Käferlarven abgetötet wurden; 0 % bedeutet, dass keine Käferlarven abgetötet wurden.

physchem [1] = test: physchem
Tetranychus urticae = assay type: in vivo; settings: foliar, 500 g/ha, 144 h
Source text: Tetranychus-Test, OP-resistent (TETRUR Spritzbehandlung)
as §1, §2
Bohnenblattscheiben (Phaseolus vulgaris), die von allen Stadien der Gemeinen Spinnmilbe (Tetranychus urticae) befallen sind, werden mit einer Wirkstoffzubereitung der gewünschten Konzentration gespritzt.
Nach 6 Tagen wird die Wirkung in % bestimmt. Dabei bedeutet 100 %, dass alle Spinnmilben abgetötet wurden; 0 % bedeutet, dass keine Spinnmilben abgetötet wurden.

physchem [2] = test: physchem; remark: listed apart in the source

Compound | Wirkung (Spodoptera frugiperda) | Wirkung (Phaedon cochleariae) | chromatographic logP (physchem [1]) | Wirkung (Tetranychus urticae) | chromatographic logP (physchem [2])
Cn1nc(C(F)(F)C(F)(F)F)c(C(F)(F)F)c1C(=O)Nc1ccc(Cl)c(C(=O)Nc2ccc(Cl)c(Cl)c2)c1 [Ia-42, N-{4-Chlor-3-[(3,4-dichlorphenyl)carbamoyl]phenyl}-1-methyl-3-(pentafluorethyl)-4-(trifluormethyl)-1H-pyrazol-5-carboxamid] | 100% | 100% | 4.65 | – | –
Cc1c(NC(=O)c2cc(NC(=O)c3c(C(F)(F)F)c(C(F)(F)C(F)(F)F)nn3C)ccc2Cl)ccc(F)c1Cl [Ia-33] | 100% | 100% | 4.34 | 90% | –
Cn1nc(C(F)(F)C(F)(F)F)c(C(F)(F)F)c1C(=O)Nc1ccc(Cl)c(C(=O)Nc2ccc(F)c(C(F)(F)F)c2)c1 [Ia-39] | 100% | 100% | 4.51 | – | –
O=C(Nc1ccc(Cl)c(C(=O)Nc2cccc(Cl)c2)c1)c1csc(C(F)(F)F)n1 [Ia-14] | – | – | – | – | 3.82
Cn1nc(C(F)(F)C(F)(F)F)c(C(F)(F)F)c1C(=O)Nc1ccc(Cl)c(C(=O)Nc2cccc(C(F)(F)F)c2)c1 [Ia-37] | 100% | 100% | 4.4 | – | –
Cn1nc(C(F)(F)C(F)(F)F)c(C(F)(F)F)c1C(=O)Nc1ccc(Cl)c(C(=O)Nc2cnccc2Cl)c1 [Ia-4] | 80% | 100% | 3.33 | – | –
Cn1nc(C(F)(F)C(F)(F)F)c(Br)c1C(=O)Nc1ccc(Cl)c(C(=O)Nc2ccc(Cl)cn2)c1 [Ia-35] | 80% | 100% | – | – | –
Cn1nc(C(F)(F)C(F)(F)F)c(C(F)(F)F)c1C(=O)Nc1ccc(Cl)c(C(=O)Nc2cccnc2Cl)c1 [Ia-13] | 100% | 100% | 3.73 | 90% | –
Cn1nc(C(F)(F)C(F)(F)F)c(C(F)(F)F)c1C(=O)Nc1ccnc(C(=O)Nc2ccc(F)cc2)c1 [Ib-1, N-[2-(4-fluor-phenylcarbamoyl)pyrid-4-yl]-1-methyl-3-(pentafluorethyl)-4-(trifluormethyl)-1H-pyrazol-5-carbonsäureamid] | – | – | – | – | 4.3
Cc1cc(F)ccc1NC(=O)c1cc(NC(=O)c2c(C(F)(F)F)c(C(F)(F)C(F)(F)F)nn2C)ccc1Cl [Ia-23] | 100% | 100% | 4.05 | 90% | –
O=C(Nc1ccc(Cl)c(C(=O)Nc2ccc(F)cc2)c1)c1csc(C(F)(F)F)n1 [Ia-5] | – | – | – | – | 3.35
Cc1cc(NC(=O)c2cc(NC(=O)c3c(C(F)(F)F)c(C(F)(F)C(F)(F)F)nn3C)ccc2Cl)c(Cl)cc1F [Ia-41] | – | 100% | 4.64 | – | –
Cn1nc(C(F)(F)C(F)(F)F)c(C(F)(F)F)c1C(=O)Nc1ccc(Cl)c(C(=O)Nc2cc(Cl)c(Cl)c(Cl)c2)c1 [Ia-44] | 100% | 100% | 5.15 | – | –
COc1ccc(NC(=O)c2cc(NC(=O)c3c(C(F)(F)F)c(C(F)(F)C(F)(F)F)nn3C)ccc2Cl)cc1 [Ia-12] | 100% | – | 3.68 | – | –
Cn1nc(C(F)(F)C(F)(F)F)c(C(F)(F)F)c1C(=O)Nc1ccc(Cl)c(C(=O)Nc2ccnc(Cl)c2)c1 [Ia-6] | 100% | 100% | 3.37 | 80% | –
Cn1nc(C(F)(F)C(F)(F)F)c(C(F)(F)F)c1C(=O)Nc1ccc(Cl)c(C(=O)Nc2ccc(Cl)cn2)c1 [Ia-27] | 100% | 100% | 4.17 | – | –
Cn1nc(C(F)(F)C(F)(F)F)c(C(F)(F)F)c1C(=O)Nc1ccc(Cl)c(C(=O)Nc2cccc(Cl)n2)c1 [Ia-19] | 100% | 100% | 3.94 | 100% | –
Cn1nc(C(F)(F)C(F)(F)F)c(C(F)(F)F)c1C(=O)Nc1ccc(Cl)c(C(=O)Nc2ccncc2)c1 [Ia-1] | – | 100% | 1.99 | – | –
